The text below walks through data of ChEMBL document CHEMBL5724914, “Linking interpersonal differences in gut microbiota composition and drug biotransformation activity” (2024).

Each structure is given as a SMILES string.

Data set [1] is described as follows: The drug is tested on Z-030 corresponding to mouse gut metagenome with ENA study accession number: PRJEB37062 and ENA sample accession number: ERS12561829 for biotransformation under anaerobic condition. The drug concentrations were measured over 9 timepoints collected between 0 and 24 hours of incubation by liquid-chromatography-coupled mass spectrometry (LC–MS). The conditions noted are these: 2 µM.

A short description of data set [2]: The drug is tested on Z-025 corresponding to rabbit gut metagenome with ENA study accession number: PRJEB37062 and ENA sample accession number: ERS12561824 for biotransformation under anaerobic condition. The drug concentrations were measured over 9 timepoints collected between 0 and 24 hours of incubation by liquid-chromatography-coupled mass spectrometry (LC–MS). The conditions noted are these: 2 µM.

Data set [3] in a line: The drug is tested on Z-014 corresponding to rat gut metagenome with ENA study accession number: PRJEB37062 and ENA sample accession number: ERS12561814 for biotransformation under anaerobic condition. The drug concentrations were measured over 9 timepoints collected between 0 and 24 hours of incubation by liquid-chromatography-coupled mass spectrometry (LC–MS). To be noted: 2 µM.

The nature of data set [4]: The drug is tested on Z-013 corresponding to rabbit gut metagenome with ENA study accession number: PRJEB37062 and ENA sample accession number: ERS12561813 for biotransformation under anaerobic condition. The drug concentrations were measured over 9 timepoints collected between 0 and 24 hours of incubation by liquid-chromatography-coupled mass spectrometry (LC–MS). The conditions noted are these: 2 µM.

Data set [5] is described as follows: The drug is tested on Z-008 corresponding to metagenome with ENA study accession number: PRJEB37062 and ENA sample accession number: ERS12561808 for biotransformation under anaerobic condition. The drug concentrations were measured over 9 timepoints collected between 0 and 24 hours of incubation by liquid-chromatography-coupled mass spectrometry (LC–MS). The conditions noted are these: 2 µM.

Data set [6] is described as follows: The drug is tested on WLS-370 corresponding to human gut metagenome with ENA study accession number: PRJEB37062 and ENA sample accession number: ERS12561793 for biotransformation under anaerobic condition. The drug concentrations were measured over 9 timepoints collected between 0 and 24 hours of incubation by liquid-chromatography-coupled mass spectrometry (LC–MS). To be noted: 2 µM.

Data set [7] in a line: The drug is tested on WLS-090 corresponding to human gut metagenome with ENA study accession number: PRJEB37062 and ENA sample accession number: ERS12561753 for biotransformation under anaerobic condition. The drug concentrations were measured over 9 timepoints collected between 0 and 24 hours of incubation by liquid-chromatography-coupled mass spectrometry (LC–MS). The conditions noted are these: 2 µM.

Data set [8] is described as follows: The drug is tested on WLS-082 corresponding to human gut metagenome with ENA study accession number: PRJEB37062 and ENA sample accession number: ERS12561751 for biotransformation under anaerobic condition. The drug concentrations were measured over 9 timepoints collected between 0 and 24 hours of incubation by liquid-chromatography-coupled mass spectrometry (LC–MS). To be noted: 2 µM.

Data set [9] can be described thus: The drug is tested on WLS-069 corresponding to human gut metagenome with ENA study accession number: PRJEB37062 and ENA sample accession number: ERS12561748 for biotransformation under anaerobic condition. The drug concentrations were measured over 9 timepoints collected between 0 and 24 hours of incubation by liquid-chromatography-coupled mass spectrometry (LC–MS). To be noted: 2 µM.

A short description of data set [10]: The drug is tested on WLS-027 corresponding to human gut metagenome with ENA study accession number: PRJEB37062 and ENA sample accession number: ERS12561744 for biotransformation under anaerobic condition. The drug concentrations were measured over 9 timepoints collected between 0 and 24 hours of incubation by liquid-chromatography-coupled mass spectrometry (LC–MS). To be noted: 2 µM.

The nature of data set [11]: The drug is tested on WLS-010 corresponding to human gut metagenome with ENA study accession number: PRJEB37062 and ENA sample accession number: ERS12561743 for biotransformation under anaerobic condition. The drug concentrations were measured over 9 timepoints collected between 0 and 24 hours of incubation by liquid-chromatography-coupled mass spectrometry (LC–MS). The conditions noted are these: 2 µM.

A short description of data set [12]: The drug is tested on WLS-007 corresponding to human gut metagenome with ENA study accession number: PRJEB37062 and ENA sample accession number: ERS12561742 for biotransformation under anaerobic condition. The drug concentrations were measured over 9 timepoints collected between 0 and 24 hours of incubation by liquid-chromatography-coupled mass spectrometry (LC–MS). To be noted: 2 µM.

For data set [13] the following is noted: human gut metagenome, 24 h, 2 µM.
The conditions of data set [14]: human gut metagenome, 24 h, 2 µM. This is another data set of the same source.
For data set [15] the following is noted: human gut metagenome, 24 h, 2 µM. The source holds these as a separate data set.
For data set [16] the following is noted: human gut metagenome, 24 h, 2 µM. The source holds these as a separate data set.
For data set [17] the following is noted: human gut metagenome, 24 h, 2 µM. This is another data set of the same source.
For data set [18] the following is noted: human gut metagenome, 24 h, 2 µM. This is another data set of the same source.
For data set [19] the following is noted: human gut metagenome, 24 h, 2 µM. This is another data set of the same source.
For data set [20] the following is noted: human gut metagenome, 24 h, 2 µM. This is another data set of the same source.
Also: call rule not given here.

`CC(Oc1c(Cl)cccc1Cl)C1=NCCN1` (stereo not given) [LOFEXIDINE]: the “Bacterial Biotransformation” value in data set [1], in [2], in data set [3], in data set [4], in [5] and in data set [6] was “Compound NOT metabolized” each time. Further, the “Bacterial Biotransformation” value in [7] is “Compound metabolized”; in [8], “Compound NOT metabolized”; in data set [9], “Compound NOT metabolized”; in [10] it was “Compound metabolized”; in data set [11], “Compound NOT metabolized”; in [12], “Compound metabolized”. Also, the “Bacterial Biotransformation” value in [13] was “Compound NOT metabolized”; in data set [14] it was “Compound NOT metabolized”; in data set [15], “Compound NOT metabolized”; in data set [16], “Compound NOT metabolized”; in data set [17], “Compound NOT metabolized”; in data set [18], “Compound metabolized”. In addition, the “Bacterial Biotransformation” value in [19] was “Compound NOT metabolized”; in data set [20] it was “Compound metabolized”.

On to `CN(C)C(=O)C(CCN1CCC(O)(c2ccc(Cl)cc2)CC1)(c1ccccc1)c1ccccc1` [LOPERAMIDE], for which the “Bacterial Biotransformation” value is recorded as “Compound NOT metabolized” in data set [1]; “Compound metabolized” in data set [2]; “Compound metabolized” in [3]; “Compound metabolized” in data set [4]; “Compound NOT metabolized” in data set [5]; “Compound metabolized” in data set [6]. In addition, the “Bacterial Biotransformation” value in data set [7], in [8], in data set [9], in [10], in data set [11] and in [12] was “Compound metabolized” in each case. The “Bacterial Biotransformation” value in data set [13], in data set [14], in [15], in data set [16], in data set [17] and in data set [18] was “Compound metabolized” in each case. The “Bacterial Biotransformation” value in data set [19] and in data set [20] was “Compound metabolized” each time.

As to `CCCCc1nc(Cl)c(CO)n1Cc1ccc(-c2ccccc2-c2nn[nH]n2)cc1` [LOSARTAN], the “Bacterial Biotransformation” value in data set [1] was “Compound NOT metabolized”; in data set [2], “Compound NOT metabolized”; in data set [3], “Compound NOT metabolized”; in data set [4], “Compound NOT metabolized”; in [5] it was “Compound NOT metabolized”; in data set [6], “Compound metabolized”. The “Bacterial Biotransformation” value in data set [7], in data set [8], in [9], in [10], in [11] and in [12] was “Compound metabolized” throughout. The “Bacterial Biotransformation” value in data set [13] is on record as “Compound metabolized”; in [14], “Compound metabolized”; in data set [15], “Compound metabolized”; in [16], “Compound NOT metabolized”; in data set [17], “Compound metabolized”; in [18] it was “Compound metabolized”. Further, the “Bacterial Biotransformation” value in [19] and in data set [20] was “Compound metabolized” throughout.

Consider `COC(=O)Nc1nc2ccc(C(=O)c3ccccc3)cc2[nH]1` [MEBENDAZOLE], for which the “Bacterial Biotransformation” value is reported as “Compound NOT metabolized” in data set [1]; “Compound metabolized” in data set [2]; “Compound NOT metabolized” in data set [3]; “Compound metabolized” in [4]; “Compound metabolized” in data set [5]; “Compound metabolized” in [6]. The “Bacterial Biotransformation” value in [7], in [8], in [9], in data set [10], in [11] and in data set [12] was “Compound metabolized” throughout. In addition, the “Bacterial Biotransformation” value in data set [13] is recorded as “Compound metabolized”; in data set [14], “Compound NOT metabolized”; in data set [15], “Compound metabolized”; in data set [16], “Compound metabolized”; in data set [17], “Compound metabolized”; in data set [18] it was “Compound metabolized”. The “Bacterial Biotransformation” value in data set [19] and in [20] was “Compound metabolized” each time.

For the molecule `COc1ccccc1OCC(O)COC(N)=O` (stereo not given) [METHOCARBAMOL], the “Bacterial Biotransformation” value in data set [1], in [2], in data set [3], in [4], in [5] and in data set [6] was “Compound NOT metabolized” in each case. The “Bacterial Biotransformation” value in data set [7], in [8], in [9], in [10], in data set [11] and in data set [12] was “Compound NOT metabolized” throughout. Also, the “Bacterial Biotransformation” value in [13], in [14], in [15], in data set [16], in data set [17] and in data set [18] was “Compound NOT metabolized” throughout. Further, the “Bacterial Biotransformation” value in data set [19] and in [20] was “Compound NOT metabolized” each time.
